The test system of data set [1] is MC3T3-E1. The data set is described as follows: Induction of osteogenesis in mouse MC3T3-E1 cells assessed as calcium level at 25 uM after 3 weeks. It is filed as functional, cell-based. The conditions noted are these: MC3T3-E1, 504 h.
In data set [2] the test system is MC3T3-E1. The data set is described as follows: Induction of osteogenesis in mouse MC3T3-E1 cells assessed as osteocalcin secretion at 25 uM after 3 weeks. Type of data set: functional, cell-based. The conditions noted are these: MC3T3-E1, 504 h.
Data set [3] deals with MC3T3-E1. The data set is described as follows: Induction of osteogenesis in mouse MC3T3-E1 cells assessed as alkaline phosphatase secretion at 25 uM after 3 weeks by ELISA. Type of data set: functional, cell-based. Particulars: MC3T3-E1, 504 h. For orientation: In an ELISA, binding on a coated surface is turned into a signal by an enzyme label.
Data set [4] in a line: Antiproliferative activity against mouse MC3T3-E1 cells after 24 hrs by BrdU incorporation assay. The conditions noted are these: mc3t3-e1, 24 h. It is filed as cell-based. A general note: Dividing cells build labelled thymidine or BrdU into new DNA.
Data set [5] relates to MC3T3-E1. The data set is described as follows: Inhibition of staurosporine-induced apoptosis in mouse MC3T3-E1 cells by caspase 3 colorimetric assay. It is filed as functional, cell-based.
Data set [6] can be described thus: Cytotoxicity against mouse MC3T3-E1 cells after 4 hrs by fluorescent Alamar blue assay. Type of data set: cell-based. Particulars: mc3t3-e1, 4 h. For orientation: Alamar Blue is a resazurin reagent that responds to reducing activity.
A short description of data set [7]: Cytotoxicity against mouse MC3T3-E1 cells assessed as increase in apoptosis treated for 3 hrs measured after 22 hrs by caspase 3 colorimetric assay. Type of data set: cell-based.

Each structure is given as a SMILES string. Active and inactive are the calls of the source. The rule behind the calls is not given here.

The results in this text go back to ChEMBL document CHEMBL1153897, “Small molecules with potent osteogenic-inducing activity in osteoblast cells” (Bioorg Med Chem Lett, 2009).

What is called EC50 is the concentration that produces a half-maximal response. As for `COc1cc2nccc(Oc3ccc4c(NC(=O)c5ccc(C)cc5)cccc4c3)c2cc1OC`, the EC50 was 150 nM in the data set with MC3T3-E1 [1], 100 nM in the data set on MC3T3-E1 [2] and 120 nM in the data set on MC3T3-E1 [3].
On to `COc1cc2nccc(Oc3ccc4c(C(=O)Nc5ccc(C)cc5)cccc4c3)c2cc1OC`, for which the EC50 in the data set on MC3T3-E1 [1] stood at 50 nM; in the data set on MC3T3-E1 [2] it was 30 nM; in the data set with MC3T3-E1 [3] it was 90 nM. In addition, the Activity result is given as “Dose-dependent effect” in data set [4] and “Non-toxic” in data set [6]. The result in the data set with MC3T3-E1 [5] was inactive.
Turning to `CN[C@@H]1C[C@H]2O[C@@](C)([C@@H]1OC)n1c3ccccc3c3c4c(c5c6ccccc6n2c5c31)C(=O)NC4` [STAUROSPORINE], in data set [7], the Activity result is on record as “Non-toxic”.
